From patent US20020162794A1, “Anaerobic digestion” (priority 2001, published 2002)
Several values for one entry are separate records, joined by “and”; a condition that tells them apart may be missing. Identical values can stand only once.

Tested on: mixed culture from a publicly owned anaerobic digester (domestic sewage sludge)
Assay: Chemical Oxygen Demand (COD) of batch anaerobic digester reactors
Procedure: Two tests were run in which sodium formate in concentrations ranging from a few parts per million (ppm) up to ten percent (10%) on a mass basis were added to samples taken from a publicly owned anaerobic digester. The samples were first cultured in laboratory sized batch reactors. The twelve batch reactors were then sampled, and studied for periods of up to fifty-five days. The process variables that were monitored included COD (Chemical Oxygen Demand), TS (Total Solids), TVS (Total Volatile Solids) and the pH of the culture. Time and the initial sodium formate concentration level were the independent variables. Finally measurements were also made of the bacterial counts at the beginning and at the end of the fifty five day period. These experimental observations permitted partial identifications of the predominant bacterial colonies still viable in each of the twelve reactors used for each trial of the laboratory study.
Chemical Oxygen Demand (COD) measurements
To perform this measurement, a 5 ml of the sample from each of the 12 reactors is taken and diluted 10-fold to 50 ml. 5 ml of the now diluted sample is again diluted 10 fold to 50 ml. This double dilution represents a 100-fold dilution of the original sample. 2 ml of these diluted samples are put into standard COD test tubes. The test tubes are closed and shaken vigorously. The 13 (COD) test tubes (one is a control) are then heated to 150 deg. C for two hours. The UV spectrometer is calibrated by first analyzing the test tube with pure distilled water as the zero COD or control sample.
The sample test tubes are then analyzed for COD using UV spectrometer after inputting the method number and adjusting the frequency of UV rays to correspond to a sample with a high organic loading range. The readings that were obtained in units of mg/liter are multiplied by 100 to correct for the dilution procedure and to get COD concentration level for the original sample. COD is indicative of the organic substrate load level in the wastewater being treated or tested.
Municipal sludge from the city of Lubbock, Wastewater Treatment Plant was digested in 12 batch digesters. Using twelve batch reactors allowed the collection of control reactors data (i.e., no formate in the reactors) in triplicate, titration studies of increasing formate concentration, and duplicates/triplicates of varying formate concentration. Experiments were conducted in the laboratories of Texas Tech University.
The substrate taken was 2 parts of 50 g/liter sucrose solution mixed with 1 part of digested municipal sludge which acts as the seed material for incorporation of microbes into the reactors. The experiments were started with the following protocol. [drawing 1]

Compound: O=C[O-].[Na+] [sodium formate]
- COD Concentration (1/4/99 run, 100 ppm, 0 Day): 29.5 g/L
- COD Concentration (1/4/99 run, 100 ppm, 15 days): 43.8 g/L
- COD Concentration (1/4/99 run, 100 ppm, 30 days): 39.1 g/L
- COD Concentration (1/4/99 run, 1250 ppm, 0 Day): 40.3 g/L
- COD Concentration (1/4/99 run, 1250 ppm, 15 days): 42.7 g/L
- COD Concentration (1/4/99 run, 1250 ppm, 30 days): 32 g/L
- COD Concentration (1/4/99 run, 2500 ppm, 0 Day): 17.1 g/L
- COD Concentration (1/4/99 run, 2500 ppm, 15 days): 41.4 g/L
- COD Concentration (1/4/99 run, 2500 ppm, 30 days): 38.9 g/L
- COD Concentration (1/4/99 run, 3750 ppm, 0 Day): 38 g/L
- COD Concentration (1/4/99 run, 3750 ppm, 15 days): 40.7 g/L
- COD Concentration (1/4/99 run, 3750 ppm, 30 days): 47.8 g/L
- COD Concentration (1/4/99 run, 5000 ppm, 0 Day): 37.5 g/L
- COD Concentration (1/4/99 run, 5000 ppm, 15 days): 43.1 g/L
- COD Concentration (1/4/99 run, 5000 ppm, 30 days): 46.6 g/L
- COD Concentration (1/4/99 run, 6250 ppm, 0 Day): 34.3 g/L
- COD Concentration (1/4/99 run, 6250 ppm, 15 days): 44.1 g/L
- COD Concentration (1/4/99 run, 6250 ppm, 30 days): 38.1 g/L
- COD Concentration (1/4/99 run, 7500 ppm, 0 Day): 36.7 g/L
- COD Concentration (1/4/99 run, 7500 ppm, 15 days): 33 g/L
- COD Concentration (1/4/99 run, 7500 ppm, 30 days): 55.8 g/L
- COD Concentration (1/4/99 run, 8750 ppm, 0 Day): 24.9 g/L
- COD Concentration (1/4/99 run, 8750 ppm, 15 days): 26.1 g/L
- COD Concentration (1/4/99 run, 8750 ppm, 30 days): 53.8 g/L
- COD Concentration (1/4/99 run, 10000 ppm, 0 Day): 33.8 g/L
- COD Concentration (1/4/99 run, 10000 ppm, 15 days): 36.1 g/L
- COD Concentration (1/4/99 run, 10000 ppm, 30 days): 45.5 g/L
- COD Concentration, Average (1/4/99 run, average 25 ppm (reactors 0, 0, 0, 100 ppm), 0 Day): 37.825 g/L
- COD Concentration, Average (1/4/99 run, average 25 ppm (reactors 0, 0, 0, 100 ppm), 15 days): 51.23 g/L
- COD Concentration, Average (1/4/99 run, average 25 ppm (reactors 0, 0, 0, 100 ppm), 30 days): 39.125 g/L
- COD Concentration, Average (1/4/99 run, average 2500 ppm (1250, 2500, 3750 ppm), 0 Day): 31.8 g/L
- COD Concentration, Average (1/4/99 run, average 2500 ppm (1250, 2500, 3750 ppm), 15 days): 41.6 g/L
- COD Concentration, Average (1/4/99 run, average 2500 ppm (1250, 2500, 3750 ppm), 30 days): 39.57 g/L
- COD Concentration, Average (1/4/99 run, average 6250 ppm (5000, 6250, 7500 ppm), 0 Day): 36.17 g/L
- COD Concentration, Average (1/4/99 run, average 6250 ppm (5000, 6250, 7500 ppm), 15 days): 40.07 g/L
- COD Concentration, Average (1/4/99 run, average 6250 ppm (5000, 6250, 7500 ppm), 30 days): 46.83 g/L
- COD Concentration, Average (1/4/99 run, average 8750 ppm (7500, 8750, 10000 ppm), 0 Day): 31.8 g/L
- COD Concentration, Average (1/4/99 run, average 8750 ppm (7500, 8750, 10000 ppm), 15 days): 31.73 g/L
- COD Concentration, Average (1/4/99 run, average 8750 ppm (7500, 8750, 10000 ppm), 30 days): 51.7 g/L
- COD Concentration (7/1/99 run (Tables 5, 6), 1000 ppm, 0 Day (with formate addition)): 52 g/L and 60.8 g/L and 48.6 g/L
- COD Concentration (7/1/99 run (Tables 5, 6), 1000 ppm, 7 Day): 65.8 g/L and 68.2 g/L and 50.3 g/L
- COD Concentration (7/1/99 run (Tables 5, 6), 1000 ppm, 1 days, listed as Format): 51.5 g/L and 60.3 g/L and 57.2 g/L
- COD Concentration (7/1/99 run (Tables 5, 6), 1000 ppm, 1 days, listed as Formate): 57.2 g/L
- COD Concentration (7/1/99 run (Tables 5, 6), 1000 ppm, 4 days): 52 g/L and 51.4 g/L and 52.3 g/L
- COD Concentration (7/1/99 run (Tables 5, 6), 1000 ppm, 9 days): 54.9 g/L and 48.5 g/L and 47.7 g/L
- COD Concentration (7/1/99 run (Tables 5, 6), 1000 ppm, 16 days): 33.1 g/L and 41.4 g/L and 33.6 g/L
- COD Concentration (7/1/99 run (Tables 5, 6), 1000 ppm, 55 days): 34 g/L and 46.6 g/L and 38 g/L
- COD Concentration (7/1/99 run (Tables 5, 6), 5000 ppm, 0 Day (with formate addition)): 60.3 g/L
- COD Concentration (7/1/99 run (Tables 5, 6), 5000 ppm, 7 Day): 52.2 g/L
- COD Concentration (7/1/99 run (Tables 5, 6), 5000 ppm, 1 days): 46.8 g/L and 48.8 g/L
- COD Concentration (7/1/99 run (Tables 5, 6), 5000 ppm, 4 days): 48.9 g/L
- COD Concentration (7/1/99 run (Tables 5, 6), 5000 ppm, 9 days): 44.2 g/L
- COD Concentration (7/1/99 run (Tables 5, 6), 5000 ppm, 16 days): 30.4 g/L
- COD Concentration (7/1/99 run (Tables 5, 6), 5000 ppm, 24 days): 30.9 g/L
- COD Concentration (7/1/99 run (Tables 5, 6), 5000 ppm, 55 days): 34.3 g/L
- COD Concentration (7/1/99 run (Tables 5, 6), 10000 ppm, 0 Day (with formate addition)): 58.2 g/L and 69 g/L and 36.7 g/L
- COD Concentration (7/1/99 run (Tables 5, 6), 10000 ppm, 7 Day): 56.4 g/L and 44.3 g/L
- COD Concentration (7/1/99 run (Tables 5, 6), 10000 ppm, 1 days, listed as Format): 50.7 g/L and 52.3 g/L and 45.5 g/L
- COD Concentration (7/1/99 run (Tables 5, 6), 10000 ppm, 1 days, listed as Formate): 45.5 g/L
- COD Concentration (7/1/99 run (Tables 5, 6), 10000 ppm, 4 days): 47.3 g/L and 43.5 g/L and 43.2 g/L
- COD Concentration (7/1/99 run (Tables 5, 6), 10000 ppm, 9 days): 49.9 g/L and 51.6 g/L and 43.7 g/L
- COD Concentration (7/1/99 run (Tables 5, 6), 10000 ppm, 16 days): 38.2 g/L and 32 g/L and 40 g/L
- COD Concentration (7/1/99 run (Tables 5, 6), 10000 ppm, 24 days): 40.8 g/L and 37.1 g/L and 40 g/L
- COD Concentration (7/1/99 run (Tables 5, 6), 10000 ppm, 55 days): 49.7 g/L and 38.5 g/L and 32 g/L
- COD Concentration (7/1/99 run (Tables 5, 6), 100000 ppm, 0 Day (with formate addition)): 49 g/L and 64.4 g/L
- COD Concentration (7/1/99 run (Tables 5, 6), 100000 ppm, 7 Day): 74.9 g/L and 94.5 g/L
- COD Concentration (7/1/99 run (Tables 5, 6), 100000 ppm, 1 days, listed as Format): 121 g/L and 165 g/L
- COD Concentration (7/1/99 run (Tables 5, 6), 100000 ppm, 1 days, listed as Formate): 120.7 g/L and 165 g/L
- COD Concentration (7/1/99 run (Tables 5, 6), 100000 ppm, 4 days): 65.5 g/L and 87.1 g/L
- COD Concentration (7/1/99 run (Tables 5, 6), 100000 ppm, 9 days): 71 g/L and 89.6 g/L
- COD Concentration (7/1/99 run (Tables 5, 6), 100000 ppm, 16 days): 57.5 g/L and 67.1 g/L
- COD Concentration (7/1/99 run (Tables 5, 6), 100000 ppm, 24 days): 41.5 g/L and 25.6 g/L
- COD Concentration (7/1/99 run (Tables 5, 6), 100000 ppm, 55 days): 64.8 g/L and 73.9 g/L
- % (reduction of average COD versus 0 ppm) (7/1/99 run, 1000 ppm): 0.72%
- COD Concentration, Average (7/1/99 run, 1000 ppm, average of 3 reactors, 0 Day): 53.8 g/L
- COD Concentration, Average (7/1/99 run, 1000 ppm, average of 3 reactors, 7 Day): 61.43 g/L
- COD Concentration, Average (7/1/99 run, 1000 ppm, average of 3 reactors, 1 days): 58.3 g/L and 56.3 g/L
- COD Concentration, Average (7/1/99 run, 1000 ppm, average of 3 reactors, 4 days): 51.9 g/L
- COD Concentration, Average (7/1/99 run, 1000 ppm, average of 3 reactors, 9 days): 50.37 g/L
- COD Concentration, Average (7/1/99 run, 1000 ppm, average of 3 reactors, 16 days): 36.03 g/L
- COD Concentration, Average (7/1/99 run, 1000 ppm, average of 3 reactors, 24 days): 36.6 g/L
- COD Concentration, Average (7/1/99 run, 1000 ppm, average of 3 reactors, 55 days): 38.87 g/L
- % (reduction of average COD versus 0 ppm) (7/1/99 run, 5000 ppm): 10.3%
- COD Concentration, average over all sampling days (Averag) (7/1/99 run, 5000 ppm, 0 to 55 days): 43.5 g/L
- % (reduction of average COD versus 0 ppm) (7/1/99 run, 10000 ppm): 5.79%
- COD Concentration, Average (7/1/99 run, 10000 ppm, average of 3 reactors, 0 Day): 54.63 g/L
- COD Concentration, Average (7/1/99 run, 10000 ppm, average of 3 reactors, 7 Day): 52.37 g/L
- COD Concentration, Average (7/1/99 run, 10000 ppm, average of 3 reactors, 1 days): 49.5 g/L
- COD Concentration, Average (7/1/99 run, 10000 ppm, average of 3 reactors, 4 days): 44.67 g/L
- COD Concentration, Average (7/1/99 run, 10000 ppm, average of 3 reactors, 9 days): 48.4 g/L
- COD Concentration, Average (7/1/99 run, 10000 ppm, average of 3 reactors, 16 days): 36.73 g/L
- COD Concentration, Average (7/1/99 run, 10000 ppm, average of 3 reactors, 24 days): 39.3 g/L
- COD Concentration, Average (7/1/99 run, 10000 ppm, average of 3 reactors, 55 days): 40.07 g/L
- % (reduction of average COD versus 0 ppm) (7/1/99 run, 100000 ppm): −56.1%
- COD Concentration, Average (7/1/99 run, 100000 ppm, average of 2 reactors, 0 Day): 56.7 g/L
- COD Concentration, Average (7/1/99 run, 100000 ppm, average of 2 reactors, 7 Day): 84.7 g/L
- COD Concentration, Average (7/1/99 run, 100000 ppm, average of 2 reactors, 1 days): 143 g/L
- COD Concentration, Average (7/1/99 run, 100000 ppm, average of 2 reactors, 4 days): 76.3 g/L
- COD Concentration, Average (7/1/99 run, 100000 ppm, average of 2 reactors, 9 days): 80.3 g/L
- COD Concentration, Average (7/1/99 run, 100000 ppm, average of 2 reactors, 16 days): 62.3 g/L
- COD Concentration, Average (7/1/99 run, 100000 ppm, average of 2 reactors, 24 days): 33.55 g/L
- COD Concentration, Average (7/1/99 run, 100000 ppm, average of 2 reactors, 55 days): 69.35 g/L
- COD reduction due to the formate (FIG. 2) (25 to 8,750 ppm, 0, 15 and 30 days): ~10%
- average percent range in improvement of measured COD levels (domestic sewage): ≤ 12%
- increase in COD reduction (FIG. 3) (from 0 formate up to about 5,000-7,000 ppm): about 10%
